The target of one series is T1, PfGAP50 (Plasmodium falciparum, UniProt Q8I2X3).
T1 sequence (Q8I2X3 24-365 limits assumed): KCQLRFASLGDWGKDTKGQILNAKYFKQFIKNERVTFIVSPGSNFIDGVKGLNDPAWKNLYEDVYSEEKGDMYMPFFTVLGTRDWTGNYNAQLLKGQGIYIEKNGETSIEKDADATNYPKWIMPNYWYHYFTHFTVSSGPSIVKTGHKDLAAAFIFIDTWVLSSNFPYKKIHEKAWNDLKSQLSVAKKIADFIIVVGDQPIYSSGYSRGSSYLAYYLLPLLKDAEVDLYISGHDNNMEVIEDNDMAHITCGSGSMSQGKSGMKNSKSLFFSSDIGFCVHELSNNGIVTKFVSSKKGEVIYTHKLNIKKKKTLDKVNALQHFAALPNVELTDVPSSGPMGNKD
Nature of the series: Surface plasmon resonance, PfGAP50 immobilized on CM5 chip, 1:1 binding model. To be noted: KD (SPR, GAP50), 1:1 Langmuir binding model.

For series [1], the system named is PfINDO. Briefly: Giemsa microscopy of parasite morphology after treatment at IC50. It is filed as cell-based, Plasmodium falciparum. To be noted: ring-stage parasites (6–12 h p.i.) treated at IC50 up to 57 h.
A short description of series [2]: MTT cytotoxicity assay. It is filed as cell-based, Human. The settings on record: human, HEK293 cells.
Another series concerns HEK293. Nature of the series: MTT cytotoxicity assay. Type of series: cell-based, Human. To be noted: for selectivity index for P. falciparum parasites: human kidney and liver cell lines vs parasite; for Selectivity index A: CC50 HEK293/IC50PfINDO.
The test system of series [3] is PfCam3.1^R539T early rings (0–3 h p.i.). Nature of the series: Ring-stage survival assay. To be noted: 10× IC50, 6 h treatment, 66 h recovery. Type of series: cell-based, Plasmodium falciparum.
The test system of the next series is PfCam3.1^R539T (MRA1240). Briefly: SYBR green I antiplasmodial growth inhibition assay. It is filed as cell-based. The settings on record: Plasmodium falciparum.
A further series concerns P. falciparum (MRA1240). Nature of the series: Fixed-ratio drug combination assay. It is filed as cell-based, Plasmodium falciparum. The settings on record: in combination with PYR, MFQ, and ART.
A further series has as its system Pf3D7. Nature of the series: SYBR green I antiplasmodial growth inhibition assay. It is filed as cell-based. To be noted: Plasmodium falciparum.
A further series deals with PfINDO late schizonts. Nature of the series: Egress/invasion inhibition assay. It is filed as cell-based, Plasmodium falciparum. The settings on record: segmental schizonts, 8 h at 2× IC50, then 48 h drug free.
Series [4] deals with P. falciparum strains (Pf3D7, PfINDO, PfCam3.1^R539T). Briefly: SYBR green I antiplasmodial assay, several strains stated together. It is filed as cell-based. To be noted: Plasmodium falciparum, read-out: IC50s against all three strains of Plasmodium.
For series [5], the system named is PfINDO. Nature of the series: SYBR green I antiplasmodial growth inhibition assay. Type of series: cell-based. To be noted: Plasmodium falciparum.
The nature of series [6]: MTT cytotoxicity assay. It is filed as cell-based, Human. The settings on record: human, HUH-7 cells.
For series [7] the following is noted: 700 mg dosage in humans, MDR-TB treatment; cited from earlier work.
In the next series the test system is P. bergheiANKA. Briefly: In vivo antimalarial study. Set-up: species or system mice. To be noted: 50 mg/kg oral, 4 consecutive days.
In the next series the test system is HUH-7. Nature of the series: MTT cytotoxicity assay. To be noted: CC50PfHUH7/IC50PfINDO. It is filed as cell-based, Human.
Setting [8] is: read-out: IC50 (nM) against Pf strains Cam3.1^R539T.
Setting [9] is: 3D7, read-out: IC50 (nM) against Pf strains 3D7.
[10] abbreviates: read-out: IC50 (nM) against Pf strains INDO.

Where “and” joins values, the source holds several entries; their conditions need not be identical. Identical values can stand only once. Entries after “also recorded” stand apart in the source; their conditions may differ. Like-named read-outs stand apart in the source and are kept apart here.

Turning to `N=C(N)NCCCCC(=O)Nc1cc(C(F)(F)F)cc(NC(=O)c2cc(C(=O)Nc3cc(C(F)(F)F)cc(NC(=O)CCCCNC(=N)N)c3O[C@@H]3CCNC3)ncn2)c1O[C@@H]1CCNC1` [Brilacidin, 4-N,6-N-bis[3-(5-carbamimidamidopentanoylamino)-2-[(3R)-pyrrolidin-3-yl]oxy-5-(trifluoromethyl)phenyl]pyrimidine-4,6-dicarboxamide], the dissociation constant (Kd) on PfGAP50 is < 75000 nM and 2810 nM. In addition, in the series on PfINDO [1], the “effect on parasite morphology and development” value is reported as “partial suppression of invasion”. In addition, the CC50 at 24 h in “MTT cytotoxicity assay [2]” and in “MTT cytotoxicity assay [6]” was above 200000 nM throughout. For the same molecule, the “selectivity index for P. falciparum parasites” value in the series on HEK293 is on record as above 100 fold. For the same molecule, the “effect on early rings in RSA” value in series [3] is recorded as “cause retardation in the growth cycle but are not able to kill early rings”. Moreover, the IC50 was 728 ± 65.2 nM with PfCam3.1^R539T (MRA1240) (setting [8]), 405 ± 63 nM in the series with Pf3D7 (setting [9]), at most 1500 nM in [4] and 634 ± 153 nM in the series on PfINDO [5] (setting [10]). For the same molecule, the “interaction by average ∑FIC” value in the series on P. falciparum (MRA1240) is “additive (∑FIC 1–2.0)”. Moreover, the “effect on merozoite egress and invasion” value in the series with PfINDO late schizonts is given as “completely prevented invasion/schizont rupture”.
Take `COc1nc2ccc(Br)cc2cc1[C@@H](c1ccccc1)[C@@](O)(CCN(C)C)c1cccc2ccccc12` [Bedaquiline, (1R,2S)-1-(6-bromo-2-methoxyquinolin-3-yl)-4-(dimethylamino)-2-naphthalen-1-yl-1-phenylbutan-2-ol]: the dissociation constant (Kd) at PfGAP50 was < 75000 nM and 9270 nM. Moreover, the “effect on parasite morphology and development” value with PfINDO [1] is “permitted parasites to develop normally while preventing merozoites from invading”. Further, the Cmax in series [7] was 6470 ng/mL. In addition, the CC50 at 24 h in the series “MTT cytotoxicity assay [2]” and in the series “MTT cytotoxicity assay [6]” was above 400000 nM throughout. In addition, the “effect on early rings in RSA” value in series [3] is given as “showed activity against early rings”. Moreover, the figures for the IC50 (in the series with PfCam3.1^R539T (MRA1240) (setting [8]); in the series with Pf3D7 (setting [9]); in [4]) were 769 ± 73.6 nM, 1210 ± 22.4 nM and at most 1500 nM, respectively. For the same molecule, the “interaction by average ∑FIC” value in the series on P. falciparum (MRA1240) was “additive (∑FIC 1–2.0)”. In the series on P. bergheiANKA, the “mice surviving / cured” value is on record as “three out of seven”. Also, the “suppression of % parasitemia” value in the series with P. bergheiANKA is reported as “substantial suppression of parasitemia; also recorded: complete suppression of % parasitemia by day 19”. For the same molecule, the “effect on merozoite egress and invasion” value in the series with PfINDO late schizonts is reported as “schizontocidal activity; also recorded: completely prevented invasion/schizont rupture”.
Turning to `CC(C)(C)NC(=O)[C@@H]1CN(Cc2cnc3occc3c2)CCN1C[C@@H](O)C[C@@H](Cc1ccccc1)C(=O)N[C@H]1c2ccccc2C[C@H]1O` [MMV1782353, (2S)-1-[(2S,4R)-4-benzyl-2-hydroxy-5-[[(1S,2R)-2-hydroxy-2,3-dihydro-1H-inden-1-yl]amino]-5-oxopentyl]-N-tert-butyl-4-(furo[2,3-b]pyridin-5-ylmethyl)piperazine-2-carboxamide], the “effect on parasite morphology and development” value in the series with PfINDO [1] was “permitted Pf development”. Further, the CC50 at 24 h in “MTT cytotoxicity assay [2]” and in the series “MTT cytotoxicity assay [6]” was above 200000 nM throughout. For the same molecule, the “selectivity index for P. falciparum parasites” value in the series with HEK293 was above 100 fold. Moreover, the IC50 is 14300 ± 210 nM in the series on PfCam3.1^R539T (MRA1240) (setting [8]); above 1000 nM in the series with PfCam3.1^R539T (MRA1240) (read-out: IC50 PfCam3.1^R539T); 670 ± 70.2 nM with Pf3D7 (setting [9]); below 1000 nM with Pf3D7 (read-out: IC50 Pf3D7); 562 ± 171 nM with PfINDO [5] (setting [10]); below 1000 nM in the series with PfINDO [5] (read-out: IC50 PfINDO). Besides, the “effect on merozoite egress and invasion” value in the series on PfINDO late schizonts is reported as “only partial inhibition of parasite invasion”; in the series on PfINDO late schizonts (listed as 1782353), “slowed the schizont rupture”.
Take `C[C@@H]1CC[C@H]2[C@@H](C)C(=O)O[C@@H]3O[C@@]4(C)CC[C@@H]1[C@]32OO4` [Artemisinin]: the 50% cytotoxic concentration (CC50) at 24 h in the series “MTT cytotoxicity assay [2]” and in “MTT cytotoxicity assay [6]” was above 100000 nM throughout. Also, the IC50 with PfCam3.1^R539T (MRA1240) (setting [8]) was 15 ± 2 nM; in the series on Pf3D7 (setting [9]) it was 13 ± 4 nM; in the series on PfINDO [5] (setting [10]), 10 ± 2 nM.
Turning to `CCN(CC)CCCC(C)Nc1ccnc2cc(Cl)ccc12` (centres unmarked) [Chloroquine], the 50% cytotoxic concentration (CC50) at 24 h is 45700 ± 3120 nM in “MTT cytotoxicity assay [2]” and 58500 ± 4730 nM in “MTT cytotoxicity assay [6]”. Further, in the series with HEK293, the “Selectivity index A” value was determined as 157.55. Besides, the results for the IC50 with PfCam3.1^R539T (MRA1240) (setting [8]), with Pf3D7 (setting [9]) and in the series on PfINDO [5] (setting [10]) were 55 ± 4 nM, 14 ± 5 nM and 290 ± 20 nM, respectively. Moreover, the “Selectivity index B” value in the series with HUH-7 worked out at 201.86.
With `Oc1cccc(C(Nc2nccs2)c2ccc3cccnc3c2O)c1` (centres unmarked) [MMV642550, 7-[(3-hydroxyphenyl)-(1,3-thiazol-2-ylamino)methyl]quinolin-8-ol], the dissociation constant (Kd) at PfGAP50 was below 75000 nM. Also, the “effect on parasite morphology and development” value with PfINDO [1] was “permitted Pf development”. The CC50 at 24 h in “MTT cytotoxicity assay [2]” and in the series “MTT cytotoxicity assay [6]” was above 200000 nM each time. In the series with HEK293, the “selectivity index for P. falciparum parasites” value was above 100 fold. Also, the IC50 with PfCam3.1^R539T (MRA1240) (setting [8]) was 1400 ± 97 nM; in the series with Pf3D7 (setting [9]), 393 ± 6.45 nM; in [4], at most 1500 nM; in the series on PfINDO [5] (setting [10]) it was 986 ± 159 nM. For the same molecule, the “effect on merozoite egress and invasion” value in the series with PfINDO late schizonts is “only partial inhibition of parasite invasion”; with PfINDO late schizonts (listed as 642550), “slowed the schizont rupture”.
As to `NC(N)=Nc1ccc(-c2ccc(-c3ccc(N=C(N)N)c(Cl)c3)o2)cc1Cl` [MMV688271, 2-[2-chloro-4-[5-[3-chloro-4-(diaminomethylideneamino)phenyl]furan-2-yl]phenyl]guanidine], the Kd on PfGAP50 is < 75000 nM and 20000 nM. In addition, in the series on PfINDO [1], the “effect on parasite morphology and development” value is given as “inhibited schizont egression”. In addition, the CC50 at 24 h in the series “MTT cytotoxicity assay [2]” is 119000 ± 33700 nM; in “MTT cytotoxicity assay [6]” it was 29600 ± 3760 nM. Moreover, the “Selectivity index A” value with HEK293 is listed as 478.31. Moreover, the “selectivity index for P. falciparum parasites” value with HEK293 is on record as above 100 fold. The IC50 in the series on PfCam3.1^R539T (MRA1240) (setting [8]) is 387 ± 39.6 nM; in the series on Pf3D7 (setting [9]), 258 ± 54.2 nM; in [4], at most 1500 nM; in the series with PfINDO [5] (setting [10]), 284 ± 24.7 nM. Moreover, in the series on P. falciparum (MRA1240), the “interaction by average ∑FIC” value is “additive (∑FIC 1–2.0)”. The “effect on merozoite egress and invasion” value with PfINDO late schizonts is given as “schizontocidal activity; also recorded: completely prevented invasion/schizont rupture”. Also, the “Selectivity index B” value in the series with HUH-7 stood at 119.08.
`O=C1[C@H](CC[C@H](O)c2ccc(F)cc2)[C@@H](c2ccc(O)cc2)N1c1ccc(F)cc1` [MMV1581377, (3R,4S)-1-(4-fluorophenyl)-3-[(3S)-3-(4-fluorophenyl)-3-hydroxypropyl]-4-(4-hydroxyphenyl)azetidin-2-one] registered a Kd at PfGAP50 of 1160 nM. In other words, the single-digit micromolar range.

The record behind these values is publication PMC10586260 (ACS Omega, 2023).
